Results from PMC4223017, “Structural Model of the hUbA1-UbcH10 Quaternary Complex: In Silico and Experimental Analysis of the Protein-Protein Interactions between E1, E2 and Ubiquitin” (PLoS ONE, 2014).
Entries after “also recorded” stand apart in the source; their conditions may differ. Residues, ends and D or L forms follow the SMILES beside them. *: point of attachment. Biotin = O=C1N[C@H]2[C@H](CS[C@H]2CCCCC(=O)*)N1; Ahx = NCCCCCC(=O)O

Columns and labels:
GST-UbcH10 [1] = target: T1, GST-UbcH10 (Homo sapiens, UniProt O00762); test: ELISA binding of biotinylated peptides to coated GST-UbcH10; conditions: for binding to UbcH10, in words: ELISA on recombinant GST-UbcH10, biotinylated peptides; for Kd / KD (µM): ELISA, wells coated overnight at 4°C with 100 µg/ml GST-UbcH10 in PBS 1X, 1 mM TCEP, biotinylated peptides at 2.2, 11, 22, 44, 108 µM in PBS 1X (1 mM TCEP for U1 and ScrU1), streptavidin-HRP, OPD, read at 490 nm, GraphPad Prism
T1 construct: made in house; host or cells: E. coli BL21 (DE3) RP
T1 sequence (O00762 1-179): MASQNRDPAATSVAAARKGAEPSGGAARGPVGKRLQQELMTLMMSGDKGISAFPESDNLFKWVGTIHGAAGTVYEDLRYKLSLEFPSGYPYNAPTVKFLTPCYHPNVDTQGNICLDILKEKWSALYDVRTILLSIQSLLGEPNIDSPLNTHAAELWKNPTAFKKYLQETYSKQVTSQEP
Procedure: The PCR product was cloned into pGEX-4T1 expression vector (GE Healthcare), leading to a protein with a cleavable N-terminal GST tag (GST-UbcH10). E. coli BL21 (DE3) RP strain was transformed with the recombinant plasmid for GST-UbcH10. Overnight cultures were used to inoculate 500 ml LB medium containing 50 µg/ml ampicillin, and protein induction was performed by the addition of 1 mM IPTG at 22°C when an OD600 value of 0.7 was reached. After approximately 16 h the cells were harvested and the proteins were isolated by sonicating cell pellets resuspended in 30 ml PBS1X in the presence of an EDTA free protease inhibitor cocktail (Roche Diagnostics). The crude cell extract was cleared by centrifugation at 18000 rpm and the supernatant was loaded onto a 1 ml GST-trap column connected to AKTA FPLC system (GE-Healthcare) equilibrated with binding buffer PBS1X. After washing with ten volumes of binding buffer, a single elution step was performed with 50 mM TrisHCl, 10 mM reduced glutathione. The fractions containing GST-UbcH10 were pooled and extensively dialyzed against PBS1X at 4°C. The homogeneity of the protein was tested by SDS–PAGE and mass spectrometry.
Wells were coated overnight at 4°C with 100 µg/ml GST-UbcH10 in PBS 1X, 1 mM TCEP, in the presence of an EDTA free protease inhibitor cocktail (Roche Diagnostics). Binding step was performed with different concentrations of biotinylated peptides L1, L2, ScrL2, U1, ScrU1, S2 (2.2, 11, 22, 44, 108 µM) in PBS 1X (with 1 mM TCEP for U1 and ScrU1). A blocking solution 1% BSA in PBS 1X, 0.05% Tween-20 was used. Washes were executed with PBS 1X, 0.05% Tween-20. To verify the interaction a 1∶10000 dilution of horseradish peroxidase-conjugated streptavidin (Sigma Aldrich) in 0.3% BSA, PBS 1X was incubated for 1 hour. The colorimetric reaction was carried out with SIGMA-FAST OPD reagent (Sigma Aldrich), according to the manufacturer's instructions. Finally, readings were performed at 490 nm on a Model680 MicroplateReader (Bio-Rad, Hercules, CA-USA), and data were recorded by Microplate Manager 5.2 program and elaborated by GraphPad Prism program. Negative control experiments with the fusion tag GST in coating were performed in the same conditions described above.
On the basis of the 3D model of the quaternary complex, we have designed six peptides as molecular probes in order to calibrate their ability to interfere the binding of UbcH10. This strategy was motivated by two main reasons. First, the identification of short peptides that mediate protein-protein interaction seemed a priori effective for disrupting the protein-protein recognition and binding. While other strategies, i.e. introduction of specific mutations, may also be envisaged, it is unclear whether single-point mutants might lead to a significant destabilization of the complex or even to impede the formation of the quaternary complex. Second, since our ultimate goal is the design of compounds that might disrupt the ubiquitilation process, testing a series of suitably chosen short peptides represents a valuable proof-of-concept for supporting the potential therapeutic effect of peptidomimetics. Specifically, the peptides were designed to examine the capability of hUbA1 stretches that contribute to the protein-protein interface with UbcH10 (Figure S7). In particular, we have designed two peptides per interface, which will be denoted S for SCCH region, L for cross loop, and U for UFD (Table 4). In the UFD region peptides U1 and U2 were selected to test the relevance of the acidic residues in mediating the binding of the UbcH10 H1 helix. […] Finally, peptides L1 and L2 were chosen to explore the role of the cross loop region in assisting the interaction with UbcH10. All the peptides were synthesized as biotinylated derivatives by solid phase method and purified by RP-HPLC. Unfortunately, S1 and U2 were insoluble and so not testable in binding assays. […]

[2] = Solubility of the synthesized peptides (testability in binding assays); type: physicochemical; conditions: for Solubility: biotinylated peptide, not testable in binding assays; for solubility, in words: biotinylated peptides
From the text: On the basis of the 3D model of the quaternary complex, we have designed six peptides as molecular probes in order to calibrate their ability to interfere the binding of UbcH10. This strategy was motivated by two main reasons. First, the identification of short peptides that mediate protein-protein interaction seemed a priori effective for disrupting the protein-protein recognition and binding. While other strategies, i.e. introduction of specific mutations, may also be envisaged, it is unclear whether single-point mutants might lead to a significant destabilization of the complex or even to impede the formation of the quaternary complex. Second, since our ultimate goal is the design of compounds that might disrupt the ubiquitilation process, testing a series of suitably chosen short peptides represents a valuable proof-of-concept for supporting the potential therapeutic effect of peptidomimetics. Specifically, the peptides were designed to examine the capability of hUbA1 stretches that contribute to the protein-protein interface with UbcH10 (Figure S7). In particular, we have designed two peptides per interface, which will be denoted S for SCCH region, L for cross loop, and U for UFD (Table 4). In the UFD region peptides U1 and U2 were selected to test the relevance of the acidic residues in mediating the binding of the UbcH10 H1 helix. […] Finally, peptides L1 and L2 were chosen to explore the role of the cross loop region in assisting the interaction with UbcH10. All the peptides were synthesized as biotinylated derivatives by solid phase method and purified by RP-HPLC. Unfortunately, S1 and U2 were insoluble and so not testable in binding assays. The ability of the soluble peptides to bind recombinant GST-UbcH10 was checked by ELISA, utilizing GST as control (data not shown).

GST-UbcH10 [3] = target: T2, GST-UbcH10 (UniProt O00762 1-179); test: ELISA; wells coated overnight at 4°C with 100 µg/ml GST-UbcH10 in PBS, 1 mM TCEP; biotinylated peptides at 2.2, 11, 22, 44, 108 µM in PBS (1 mM TCEP for U1 and ScrU1); detection with streptavidin-HRP, reading at 490 nm; apparent KD; conditions: both partners purified
T2 construct: UbcH10, a Ubiquitin Conjugation Enzyme (E2); PCR product cloned into pGEX-4T1; The GST tag is cleavable but the fusion GST-UbcH10 was coated on the wells; PDB 1I7K (used only for modelling) lacks the first 30 residues and has Ser114; nothing says that the ELISA construct has these limits; also called E2; recombinant GST-UbcH10; source: E. coli BL21 (DE3) RP, purified (GST-trap column, dialysed …)
T2 sequence (looked up): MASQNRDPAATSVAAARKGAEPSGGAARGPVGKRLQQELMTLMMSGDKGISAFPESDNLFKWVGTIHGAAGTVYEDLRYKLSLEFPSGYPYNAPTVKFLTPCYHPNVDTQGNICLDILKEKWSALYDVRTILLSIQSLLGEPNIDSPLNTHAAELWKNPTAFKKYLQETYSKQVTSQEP

CC(C)C[C@H](NC(=O)[C@H](CCC(=O)O)NC(=O)CCCCCNC(=O)CCCC[C@@H]1SC[C@@H]2NC(=O)N[C@@H]21)C(=O)N[C@@H](CC(N)=O)C(=O)N[C@@H](CS)C(=O)N[C@@H](CC(=O)O)C(=O)N[C@H](C(=O)N[C@@H](CCC(=O)O)C(=O)N[C@H](C(=O)N[C@@H](CCC(=O)O)C(=O)NCC(=O)N[C@@H](CO)C(=O)N[C@@H](CC(=O)O)C(=O)N[C@@H](CS)C(N)=O)C(C)C)C(C)C [ScrU1] ({Biotin-Ahx}-ELNCDVEVEGSDC-NH2)
binding to UbcH10, in words (GST-UbcH10 [1]): very poor binding
Kd (GST-UbcH10 [1]): > 100 µM

C[C@@H](O)[C@H](NC(=O)[C@H](CCCCN)NC(=O)[C@H](CO)NC(=O)[C@@H]1CCCN1C(=O)[C@H](CC(=O)O)NC(=O)[C@H](CO)NC(=O)CCCCCNC(=O)CCCC[C@@H]1SC[C@@H]2NC(=O)N[C@@H]21)C(=O)N[C@@H](CO)C(=O)N[C@@H](CCC(=O)O)C(=O)N[C@@H](Cc1ccc(O)cc1)C(=O)N[C@@H](CCC(N)=O)C(=O)N1CCC[C@H]1C(=O)N[C@@H](CO)C(=O)N[C@@H](CCC(=O)O)C(N)=O [ScrL2] ({Biotin-Ahx}-SDPSKTSEYQPSE-NH2)
binding to UbcH10, in words (GST-UbcH10 [1]): very poor binding
Kd (GST-UbcH10 [1]): > 80 µM

LELCCNDESGEDV [U2, peptide from hUbA1 UFD region, residues 1036-1048, biotinylated derivative]
Solubility [2]: Not soluble
solubility, in words [2]: insoluble; also recorded: low solubility

RDEFEGLFKQPAEN [S2, peptide corresponding to helix H19 in the hUbA1 SCCH region, residues 649-662, designed as negative control]
KD (µM) (GST-UbcH10 [1]): No binding

IHVSDQELQSA [S1, peptide from hUbA1 SCCH region (Cys-cap), residues 807-817, biotinylated derivative]
Solubility [2]: Not soluble
solubility, in words [2]: insoluble

SQDPPEKSIPI [L1, peptide from hUbA1 cross loop, residues 621-631, biotinylated derivative]
binding to UbcH10, in words (GST-UbcH10 [1]): low affinity
KD (µM) (GST-UbcH10 [1]): No binding

B1: L2-scrambled peptide (peptide)
peptide: {Biotin-Ahx}-SDPSKTSEYQPSE-NH2
SMILES: C[C@@H](O)[C@H](NC(=O)[C@H](CCCCN)NC(=O)[C@H](CO)NC(=O)[C@@H]1CCCN1C(=O)[C@H](CC(=O)O)NC(=O)[C@H](CO)NC(=O)CCCCCNC(=O)CCCC[C@@H]1SC[C@@H]2NC(=O)N[C@@H]21)C(=O)N[C@@H](CO)C(=O)N[C@@H](CCC(=O)O)C(=O)N[C@@H](Cc1ccc(O)cc1)C(=O)N[C@@H](CCC(N)=O)C(=O)N1CCC[C@H]1C(=O)N[C@@H](CO)C(=O)N[C@@H](CCC(=O)O)C(N)=O
notes: scrambled order of the residues of peptide L2; also called ScrL2; source: synthetic peptide (Fmoc solid phase, RP-HPLC purified)
Kd (GST-UbcH10 [3]): > 80 µM

B2: U1-scrambled peptide (peptide)
peptide: {Biotin-Ahx}-ELNCDVEVEGSDC-NH2
modifications: cysteine pairing not given here
notes: scrambled order of the residues of peptide U1; also called ScrU1; source: synthetic peptide (Fmoc solid phase, RP-HPLC purified)
Kd (GST-UbcH10 [3]): > 100 µM

B3: U1 peptide (hUbA1 UFD region, 1038-1050) (peptide)
peptide: {Biotin-Ahx}-LCCNDESGEDVEV-NH2
modifications: cysteine pairing not given here
notes: human UbA1 (E1), UFD region, residues 1038-1050; source: synthetic peptide (Fmoc solid phase, RP-HPLC purified)
Kd (GST-UbcH10 [3]): 10 µM

B4: L2 peptide (hUbA1 cross loop, 615-627) (peptide)
peptide: {Biotin-Ahx}-TESYSSSQDPPEK-NH2
SMILES: C[C@@H](O)[C@H](NC(=O)CCCCCNC(=O)CCCC[C@@H]1SC[C@@H]2NC(=O)N[C@@H]21)C(=O)N[C@@H](CCC(=O)O)C(=O)N[C@@H](CO)C(=O)N[C@@H](Cc1ccc(O)cc1)C(=O)N[C@@H](CO)C(=O)N[C@@H](CO)C(=O)N[C@@H](CO)C(=O)N[C@@H](CCC(N)=O)C(=O)N[C@@H](CC(=O)O)C(=O)N1CCC[C@H]1C(=O)N1CCC[C@H]1C(=O)N[C@@H](CCC(=O)O)C(=O)N[C@@H](CCCCN)C(N)=O
notes: human UbA1 (E1), cross loop region, residues 615-627; source: synthetic peptide (Fmoc solid phase, RP-HPLC purified)
Kd (GST-UbcH10 [3]): 20 µM
